In patent publication US9416115B2, “Fused heterocyclic compounds as ion channel modulators” (Gilead Sciences, Inc., priority 2013, dated 2016):

What was measured:
[1] = target: T1, hNav1.3 (SCN3A) (Homo sapiens, UniProt Q9NY46); experiment: Voltage-dependent inhibition of the Nav1.3 sodium channel; format: cell-based; details: voltage-dependent block of peak current, read-out: Nav 1.3-VDB 1 uM
T1 construct: expressed in transfected cells
Procedure: HEK-293 cells stably expressing wild-type (WT) hNav1.3 (SCN3A NCBI # NP 001075, SCN1B NCBI # NM 001037.4, SCN2B NCBI # NM 004588.2) were used to record INa. Cells are maintained with standard tissue culture procedures and stable channel expression is maintained with 800 ug/mL G418 and 3 ug/mL Puromycin in the culture medium. Unless otherwise noted, all reagents are purchased from Sigma-Aldrich (St Louis, Mo., U.S.A.).
Assays measuring Voltage-Dependent Block (VDB) of Nav1.3 are performed on an automated electrophysiology platform, QPatch 16X or QPatch HT (Sophion Bioscience, Copenhagen, Denmark), using the whole cell patch clamp technique to measure currents through the cell membrane. Series resistance compensation is set to 100% and series resistance and whole-cell compensation are performed automatically. Currents stored in the Sophion Bioscience Oracle database (Sophion Bioscience, Copenhagen, Denmark). Analysis is performed using QPatch Assay software and data are compiled in Excel 2010 (Microsoft, Seattle, Wash., U.S.A.).
The internal (pipette) solution consists of (in mM) 105 CsF, 10 NaF, 20 CsCl, 2 EGTA, 10 HEPES, 10 Dextrose with a pH of 7.35 and osmolarity of 300 mOsmol/kg. The external (bath) solution contains in (mM): 80 NaCl, 60 Choline-Cl, 4 KCl, 1.8 CaCl2, 1 MgCl2, 10 dextrose, 10 HEPES, with a pH of 7.35 and osmolarity of 310 mOsmol/kg. Experiments are carried out at 23-25° C.
Compound stocks are routinely made by the Gilead Sample Bank in vials to 10 mM in dimethyl sulfoxide (DMSO). In some cases, when compounds are not soluble in DMSO, they are made in 100% ethanol. Stocks are sonicated as necessary. Compounds are diluted in extracellular solution using a MicroLab Nimbus (Hamilton Robotics, Reno, Nev.) to 1 μM in glass vials and transferred to glass well plates before robotic addition to the cells.
Cells are allowed to stabilize for 10 min after establishment of the whole-cell configuration before current is measured. The test compound is applied 3 times at 120 second intervals to allow for equilibration. Currents were leak subtracted using a P/4 procedure, low-pass Bessel filtered at 5 kHz and digitized at 25 kHz. Results are presented as mean percentage inhibition.
Voltage-dependent block of Nav1.3 peak current was measured during a voltage step to 0 mV (20 ms) following a voltage step pre-conditioning steps (−55 mV for 10 sec followed by −120 mV for 10 ms). The holding potential was −120 mV and this voltage protocol induces half maximal inactivation of Nav1.3. The voltage protocol for VDB was performed every 45 seconds in the absence and presence of compound and percentage inhibition was calculated with respect to the compound free condition.

[2] = Plasma concentration in the rabbit ischemia study; format: in vivo, New Zealand rabbits; details: iv infusion targeted to 1 uM plasma
Procedure: (§1) Rabbits were anesthetized with ketamine (35 mg/kg) and xylazine (5 mg/kg) intramuscular injection (im). A tracheotomy was performed and the trachea was intubated with an endotracheal tube. The animal was ventilated with room air supplemented with oxygen using a pressure control animal ventilator (Kent Scientific Corp., Torrington, Conn.) at a respiratory rate of 40 strokes/min and peak inspiration pressure of 10 mmH2O, which was adjusted to keep blood gases and pH within the physiological range (iSTAT clinic analyzer, Heska Corp.; Waukesha, Wis.). The left femoral artery was cannulated for the measurement of blood pressure (BP). Blood samples were also withdrawn from femoral artery. The right external jugular vein was cannulated for drug/vehicle administration. Needle electrodes were inserted subcutaneously into the limbs for recording of the surface electrocardiogram (ECG).
(§2) Reference electrodes were placed in the open incision of the neck. The body temperature of the animal was monitored via a rectal thermometer and maintained at 37-40° C. by adjusting the surface temperature of the surgical table. Regional ischemia (15 min) was induced by ligating the LAD followed by 15 min of reperfusion caused by releasing the ligation. The heart was excised at the end of the experiment and the LAD was re-ligated. The ischemic area was visualized by perfusing the heart with 1% Evans blue in saline and calculated as a percentage of total ventricular weight. Rabbits with ischemic area less than 10% or larger than 25% were excluded from the analysis. Animals were randomly assigned to vehicle and test compound groups. Test compounds were dissolved in 15% NMP, 10% Solutol and 75% de-ionized water (dH2O). Test compounds were given as an iv infusion at a rate targeted to reach plasma concentrations of 1 μM. After 30 min of compound administration the heart was subjected to 15 min of ischemia followed by 15 min of reperfusion.

[3] = test system: Ischemia-Induced ST Segment Elevation in Anesthetized Rabbits; experiment: Ischemia-induced ST segment elevation in anesthetized rabbits; format: in vivo, New Zealand rabbits; details: iv infusion; 15 min LAD ischemia after 30 min of compound administration
Procedure: This study was undertaken to determine the anti-ischemic effects of compounds of the present disclosure in an in vivo rabbit model.
Female New Zealand rabbits (3.0-4.0 kg) were purchased from Western Oregon Rabbitry. Animals were housed on a 12-h light and dark cycle and received standard laboratory chow and water. All experiments were performed in accordance with the Guide for the Care and Use of Laboratory Animals published by The National Research Council and with the experimental protocol approved by the Institutional Animal Care Committee of Gilead Sciences, Inc.
as §1
The heart was exposed via an incision in the 4th intercostal space (4th and/or 5th ribs were cut for a clear surgical vision). The chest was opened and a pericardial cradle was formed using 4 retractors. A coronary artery occluder, comprised of a snare made of 5 cm PE-10 tubing with a 6-0 Prolene polypropylene suture in it, was placed loosely around the left anterior descending artery (LAD) at its origin. Two unipolar electrodes, made with teflon coated silver wire attached to a small patch of filter paper, were attached on the surface of the ischemic and normal regions of the left ventricle to record epicardial electrocardiogram.
as §2

T1 sequence (Q9NY46 1-1951 isoform Q9NY46-2): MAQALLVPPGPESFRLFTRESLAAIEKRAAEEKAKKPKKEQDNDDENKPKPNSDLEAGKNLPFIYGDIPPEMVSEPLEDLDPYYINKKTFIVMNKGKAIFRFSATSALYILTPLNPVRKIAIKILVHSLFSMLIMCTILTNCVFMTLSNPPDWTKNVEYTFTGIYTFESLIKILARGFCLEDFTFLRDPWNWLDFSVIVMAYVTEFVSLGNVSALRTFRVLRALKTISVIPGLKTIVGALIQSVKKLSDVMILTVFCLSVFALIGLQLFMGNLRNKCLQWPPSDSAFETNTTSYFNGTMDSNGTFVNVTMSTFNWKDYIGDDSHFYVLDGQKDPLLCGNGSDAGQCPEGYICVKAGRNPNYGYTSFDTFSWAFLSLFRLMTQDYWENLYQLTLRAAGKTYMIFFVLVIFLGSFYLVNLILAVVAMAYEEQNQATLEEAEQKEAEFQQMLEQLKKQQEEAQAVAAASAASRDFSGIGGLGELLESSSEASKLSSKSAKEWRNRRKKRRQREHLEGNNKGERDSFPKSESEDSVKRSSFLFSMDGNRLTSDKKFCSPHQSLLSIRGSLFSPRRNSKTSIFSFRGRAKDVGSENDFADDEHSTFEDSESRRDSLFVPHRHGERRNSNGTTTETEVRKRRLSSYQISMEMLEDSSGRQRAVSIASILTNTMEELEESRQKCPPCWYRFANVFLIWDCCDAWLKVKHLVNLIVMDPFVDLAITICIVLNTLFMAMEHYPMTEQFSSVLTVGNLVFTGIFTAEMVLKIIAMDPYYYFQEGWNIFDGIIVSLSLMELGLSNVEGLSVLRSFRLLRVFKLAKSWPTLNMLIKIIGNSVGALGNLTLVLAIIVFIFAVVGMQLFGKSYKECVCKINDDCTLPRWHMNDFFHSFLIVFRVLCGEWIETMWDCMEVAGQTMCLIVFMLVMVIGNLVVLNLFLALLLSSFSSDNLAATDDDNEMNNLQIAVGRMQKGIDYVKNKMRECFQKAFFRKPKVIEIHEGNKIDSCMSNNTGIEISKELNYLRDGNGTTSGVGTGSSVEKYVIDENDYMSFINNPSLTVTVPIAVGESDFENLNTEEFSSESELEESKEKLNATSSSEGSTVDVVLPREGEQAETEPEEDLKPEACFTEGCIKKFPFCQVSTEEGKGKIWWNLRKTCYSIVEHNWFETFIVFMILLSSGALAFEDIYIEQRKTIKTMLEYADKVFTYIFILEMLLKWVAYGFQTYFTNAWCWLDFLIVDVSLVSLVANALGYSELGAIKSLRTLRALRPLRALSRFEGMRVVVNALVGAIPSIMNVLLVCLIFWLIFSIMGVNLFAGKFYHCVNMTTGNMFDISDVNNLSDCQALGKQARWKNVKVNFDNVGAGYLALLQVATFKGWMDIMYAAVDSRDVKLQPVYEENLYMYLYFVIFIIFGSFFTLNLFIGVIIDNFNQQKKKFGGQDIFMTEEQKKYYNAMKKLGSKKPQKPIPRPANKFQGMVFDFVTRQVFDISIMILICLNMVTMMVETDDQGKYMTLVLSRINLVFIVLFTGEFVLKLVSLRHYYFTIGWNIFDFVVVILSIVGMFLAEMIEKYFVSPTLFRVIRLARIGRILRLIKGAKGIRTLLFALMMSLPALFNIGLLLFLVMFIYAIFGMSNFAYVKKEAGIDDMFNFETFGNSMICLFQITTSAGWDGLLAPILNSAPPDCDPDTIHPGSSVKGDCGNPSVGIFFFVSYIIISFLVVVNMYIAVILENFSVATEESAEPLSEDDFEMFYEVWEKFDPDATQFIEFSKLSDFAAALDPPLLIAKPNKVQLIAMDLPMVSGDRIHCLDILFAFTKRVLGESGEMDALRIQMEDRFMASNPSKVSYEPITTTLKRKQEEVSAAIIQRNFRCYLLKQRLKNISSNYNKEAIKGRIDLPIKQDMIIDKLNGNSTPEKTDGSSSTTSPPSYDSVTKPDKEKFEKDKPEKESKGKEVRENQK
T1 sequence (Q07699 19-218 partner): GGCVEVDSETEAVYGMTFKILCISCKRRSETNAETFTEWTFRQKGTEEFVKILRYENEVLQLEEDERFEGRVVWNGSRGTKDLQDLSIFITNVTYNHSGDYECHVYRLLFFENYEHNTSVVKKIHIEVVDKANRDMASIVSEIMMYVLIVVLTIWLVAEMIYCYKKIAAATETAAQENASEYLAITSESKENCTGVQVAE
T1 sequence (O60939 30-215 partner): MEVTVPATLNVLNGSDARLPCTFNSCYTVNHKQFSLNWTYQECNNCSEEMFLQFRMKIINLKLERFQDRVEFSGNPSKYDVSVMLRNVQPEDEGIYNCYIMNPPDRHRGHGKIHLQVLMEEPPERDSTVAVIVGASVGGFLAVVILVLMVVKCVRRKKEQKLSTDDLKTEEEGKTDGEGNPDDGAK

SMILES	inhibition at 1 µM [1] [%]	Plasma concentration [2] [nM]	Rabbit ST Segment (Percent reduction) [3] [Percent reduction]
COc1cc(-c2ccc(C(F)(F)F)cc2F)cc2c(OCc3ncccn3)noc12 [Example 24, 5-(2-fluoro-4-(trifluoromethyl)phenyl)-7-methoxy-3-(pyrimidin-2-ylmethoxy)benzo[d]isoxazole]	< 5	–	–
O=C1CC[C@H](COc2noc3ccc(-c4ccc(OC(F)(F)F)cc4)cc23)N1 [Example 61, (R)-5-(((5-(4-(trifluoromethoxy)phenyl)benzo[d]isoxazol-3-yl)oxy)methyl)pyrrolidin-2-one]	8.6	–	–
FC1(F)Oc2ccc(-c3ccc4onc(OCc5ncccn5)c4c3)cc2O1 [Example 30, 5-(2,2-difluorobenzo[d][1,3]dioxol-5-yl)-3-(pyrimidin-2-ylmethoxy)benzo[d]isoxazole]	21.5	–	–
Cc1cc(OC(F)(F)F)ccc1-c1cc2c(OCc3ncccn3)noc2cc1C [Example 29, 6-methyl-5-(2-methyl-4-(trifluoromethoxy)phenyl)-3-(pyrimidin-2-ylmethoxy)benzo[d]isoxazole]	39.5	–	–
FC(F)(F)Oc1ccc(-c2ccc3onc(OCc4cn5ccccc5n4)c3c2)cc1 [Example 51, 3-(imidazo[1,2-a]pyridin-2-ylmethoxy)-5-(4-(trifluoromethoxy)phenyl)benzo[d]isoxazole]	26.6	–	–
COc1cc(-c2ccc(OC(F)(F)F)cc2C)cc2c(OCc3ncccn3)noc12 [Example 25, 7-methoxy-5-(2-methyl-4-(trifluoromethoxy)phenyl)-3-(pyrimidin-2-ylmethoxy)benzo[d]isoxazole]	12.3	–	–
FC(F)(F)COc1ccc(-c2ccc3onc(OCc4ncccn4)c3c2)cn1 [Example 21, 3-(pyrimidin-2-ylmethoxy)-5-(6-(2,2,2-trifluoroethoxy)pyridin-3-yl)benzo[d]isoxazole]	11.2	400	66
